Results from US7960368B2, “Bismethylene-17A carbolactones and related uses” (Everstra, Inc., priority 2008, dated 2011).
Where “and” joins values, the source holds several entries; their conditions need not be identical. Equal values may be shown once. Read-outs that look alike come from different tables or passages of the source.

What was measured:
[1] = target: T1, recombinant human glucocorticoid receptor (rhGR) (Homo sapiens, UniProt P04150); assay: Glucocorticoid receptor binding assay; conditions: hGR IC50, competition with 10 nM [3H]dexamethasone; superscript marks the assay run
T1 sequence (P04150 1-777): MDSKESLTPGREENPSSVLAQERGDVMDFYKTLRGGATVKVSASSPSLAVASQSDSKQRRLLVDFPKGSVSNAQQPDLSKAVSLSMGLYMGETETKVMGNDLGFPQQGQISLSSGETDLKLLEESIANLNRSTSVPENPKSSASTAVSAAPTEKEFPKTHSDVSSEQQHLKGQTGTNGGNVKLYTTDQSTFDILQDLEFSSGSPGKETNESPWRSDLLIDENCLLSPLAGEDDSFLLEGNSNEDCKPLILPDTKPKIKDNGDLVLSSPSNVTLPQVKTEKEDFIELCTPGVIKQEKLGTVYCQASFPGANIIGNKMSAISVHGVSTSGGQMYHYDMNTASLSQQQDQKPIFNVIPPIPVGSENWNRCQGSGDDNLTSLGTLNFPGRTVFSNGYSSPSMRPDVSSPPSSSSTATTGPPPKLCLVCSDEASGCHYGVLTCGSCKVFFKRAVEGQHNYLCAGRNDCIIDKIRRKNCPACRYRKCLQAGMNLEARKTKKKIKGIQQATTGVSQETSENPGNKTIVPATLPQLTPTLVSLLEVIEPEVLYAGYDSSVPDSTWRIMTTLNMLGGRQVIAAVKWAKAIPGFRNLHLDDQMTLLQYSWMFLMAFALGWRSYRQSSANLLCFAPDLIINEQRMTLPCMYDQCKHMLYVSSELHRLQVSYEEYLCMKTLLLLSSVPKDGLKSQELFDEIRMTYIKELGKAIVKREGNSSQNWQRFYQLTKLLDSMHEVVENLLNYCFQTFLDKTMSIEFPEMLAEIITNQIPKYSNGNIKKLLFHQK
Protocol: DCC is added to the wells after incubation to separate bound and unbound radioligand using a repeater pipettor to reduce variability.
Recombinant human GR: 8.6 pmol/mg, 80 pmol/ml. • 2. KEM buffer (10 mM KPO4, pH 7.4, 0.1 mM EDTA, 20 mM Na2MoO4) • 3. KEMD buffer (KEM buffer+5 mM DTT, add DTT the day of assay) • 4. […] 5% Dextran-coated charcoal solution in DEM buffer B. Assay Method—Set Up on Ice. • 1. Dilute 4×10^−3 M CDB-3972 to 4×10^−5 M (40 μM) in KEMD for NSB. The final concentration will be 10 μM. • 2. Thaw the rhGR on ice. […] Dilute rhGR 1:5 (80 pmol/ml) to 16.0 pmol/ml in KEMD. At 25 μl/tube, the final concentration will be 400 fmol/tube in KEMD. • 3. Prepare KEMD containing 10% ethanol. Dilute the compounds to be assayed in KEMD containing 10% ethanol to the working concentrations specified in Table 3. • 4. Prepare a 40 nM solution [^3H]Dex in KEMD containing 10% ethanol. The final concentration will be 10 nM. • 5. Set up the assay in microplates. Use 3 wells for total counts (no receptor), 3 NSB, 6 total binding, and triplicate wells for each concentration of dex or CDB compound. […] Mix gently, and incubate overnight at 2-6° C.
The next morning, prechill the Jouan centrifuge with microplate rotor. Add 50 μl of 5% DCC in KEM to all but total counts using a repeater pipettor. Make sure the DCC is constantly mixed and thoroughly resuspended before adding to the wells. • 7. Mix gently in the cold room for 5 min on plate shaker. • 8. Centrifuge at 3,000 rpm in the Jouan centrifuge at 4° C. for 15 min. • 9. Keeping the plates on ice, pipet 100 μl of the supernatants into 24-well plates, add 1 ml of Microscint PS, and seal the plates. Pre-incubate the plates for 10 min in the counter, and count each well for 2 min in the TopCount.

[2] = target: T2, recombinant rat androgen receptor ligand binding domain (ARLBD) (Rattus norvegicus, UniProt P15207); assay: Androgen receptor binding assay; conditions: for IC50: superscript marks the assay run
T2 sequence (P15207 651-882 limits assumed): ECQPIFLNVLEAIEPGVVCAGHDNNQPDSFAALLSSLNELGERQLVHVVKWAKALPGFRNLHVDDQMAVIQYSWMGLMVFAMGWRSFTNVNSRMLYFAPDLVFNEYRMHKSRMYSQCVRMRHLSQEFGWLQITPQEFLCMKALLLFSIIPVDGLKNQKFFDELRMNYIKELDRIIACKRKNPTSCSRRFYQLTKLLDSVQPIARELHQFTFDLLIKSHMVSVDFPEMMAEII
Protocol: The relative affinity of test substances for the androgen receptor was taken as a measure of androgen antagonist activity and of the potential for anti-androgen side effects. […] Different concentrations (e.g., 10 nM, 15 nM or 30 nM) of purified recombinant ARLBD are immobilized to an OptiPlate 96-well microtiter plate (Packard) via incubation at 4° C. in 100 μl/well PBS containing ARLBD. […] “No compound” controls contain DMSO/binding buffer without compound. The plates are incubated overnight at 4° C., after which solutions in the plates are aspirated and washed six times with PBS, followed by the addition of MicroScint-20 scintillation cocktail (Packard). The plates are sealed using transparent sealing tape and counted for radioactivity by use of the scintillation counter. The data thus obtained is used to determine the IC50 values and the relative binding affinity (“RBA”) of the androgen receptor for the test compound.

[3] = target: T3, recombinant human progesterone receptor A (hPR-A) (Homo sapiens, UniProt P06401); assay: Progestin receptor binding assay, hPR-A; conditions: for IC50: competition with [3H]-progesterone; for hPR-A RBA: relative binding affinity, progesterone = 100
T3 sequence (P06401 1-769 isoform P06401-2): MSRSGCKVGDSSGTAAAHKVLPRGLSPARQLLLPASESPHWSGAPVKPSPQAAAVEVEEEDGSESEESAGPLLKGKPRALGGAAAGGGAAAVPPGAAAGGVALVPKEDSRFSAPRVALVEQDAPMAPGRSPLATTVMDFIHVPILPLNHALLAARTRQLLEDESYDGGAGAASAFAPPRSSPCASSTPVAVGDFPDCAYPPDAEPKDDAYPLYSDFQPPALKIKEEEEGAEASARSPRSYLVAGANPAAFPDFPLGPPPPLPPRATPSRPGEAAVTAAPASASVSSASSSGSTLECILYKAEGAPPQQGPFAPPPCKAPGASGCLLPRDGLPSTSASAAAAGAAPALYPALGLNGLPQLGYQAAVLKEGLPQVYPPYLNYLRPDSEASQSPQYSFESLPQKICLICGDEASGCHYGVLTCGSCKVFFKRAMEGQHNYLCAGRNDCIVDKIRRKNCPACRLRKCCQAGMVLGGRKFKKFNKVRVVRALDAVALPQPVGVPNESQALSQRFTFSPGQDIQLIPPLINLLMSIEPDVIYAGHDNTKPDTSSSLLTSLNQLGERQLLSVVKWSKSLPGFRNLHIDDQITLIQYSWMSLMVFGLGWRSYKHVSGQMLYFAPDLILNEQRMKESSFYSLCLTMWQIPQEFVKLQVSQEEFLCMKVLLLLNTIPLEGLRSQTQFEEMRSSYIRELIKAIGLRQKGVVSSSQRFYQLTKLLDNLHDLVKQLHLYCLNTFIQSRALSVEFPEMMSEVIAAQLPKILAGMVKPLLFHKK
Protocol: (§1) “No compound” controls contain DMSO/binding buffer without compound. The plates are incubated overnight at 4° C., after which solutions in the plates are aspirated and washed six times with PBS, followed by the addition of MicroScint-20 scintillation cocktail (Packard). The plates are sealed using transparent sealing tape and counted for radioactivity by use of the scintillation counter.

[4] = target: T4, recombinant human progesterone receptor B (hPR-B) (Homo sapiens, UniProt P06401); assay: Progestin receptor binding assay, hPR-B; conditions: for IC50: competition with [3H]-progesterone; for hPR-B RBA: relative binding affinity, progesterone = 100
T4 sequence (P06401 1-933): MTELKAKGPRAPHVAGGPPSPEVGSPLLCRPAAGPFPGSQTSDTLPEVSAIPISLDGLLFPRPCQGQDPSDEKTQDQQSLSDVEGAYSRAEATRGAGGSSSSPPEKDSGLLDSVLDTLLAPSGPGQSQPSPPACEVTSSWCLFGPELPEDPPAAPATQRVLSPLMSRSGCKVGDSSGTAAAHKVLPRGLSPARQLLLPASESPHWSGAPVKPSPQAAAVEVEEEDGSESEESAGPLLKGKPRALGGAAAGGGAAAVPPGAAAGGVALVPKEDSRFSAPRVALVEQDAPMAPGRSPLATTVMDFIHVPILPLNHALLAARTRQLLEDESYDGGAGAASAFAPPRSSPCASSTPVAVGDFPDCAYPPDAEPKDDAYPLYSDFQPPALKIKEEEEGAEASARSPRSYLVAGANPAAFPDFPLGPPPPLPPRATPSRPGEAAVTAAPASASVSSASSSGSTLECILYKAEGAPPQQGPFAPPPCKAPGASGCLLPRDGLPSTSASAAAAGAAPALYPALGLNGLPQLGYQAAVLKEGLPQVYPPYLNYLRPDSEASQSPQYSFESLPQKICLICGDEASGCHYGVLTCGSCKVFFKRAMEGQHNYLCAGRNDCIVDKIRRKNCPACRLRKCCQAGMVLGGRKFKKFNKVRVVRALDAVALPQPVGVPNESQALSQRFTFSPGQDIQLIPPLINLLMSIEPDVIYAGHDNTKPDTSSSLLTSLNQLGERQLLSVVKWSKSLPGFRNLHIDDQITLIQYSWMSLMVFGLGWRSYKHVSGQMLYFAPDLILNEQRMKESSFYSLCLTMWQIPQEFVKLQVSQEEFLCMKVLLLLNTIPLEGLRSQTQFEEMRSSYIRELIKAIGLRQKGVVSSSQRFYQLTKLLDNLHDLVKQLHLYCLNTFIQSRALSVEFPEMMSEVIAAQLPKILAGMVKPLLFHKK
Protocol: as §1

[5] = acidic conditions such as the gastric environment; cited from earlier work
[6] = single entity tablet; cited from earlier work
[7] = various pH values; cited from earlier work
[8] = competition with 5 nM [3H]-R1881, read-out: ARLBD IC50
[9] = ARLBD IC50, competition with 5 nM [3H]-R1881

SMILES | IC50 [1] | ARLBD RBA [2] | IC50 [2, 8] | IC50 [3] [nM] | hPR-A RBA [3] [%] | IC50 [4] [nM] | hPR-B RBA [4] [%] | IC50 [2, 9] | ARLBD RBA ([2]; relative binding affinity, R1881 = 100, same assay run) [%] | isomerization under acidic conditions [5] | absolute bioavailability [6] | solubility in water [7]
C[C@]12CC3(CC3)C(=O)C=C1[C@@H]1CC1C1C2CC[C@@]2(C)C1[C@@H]1CC1[C@@]21CCC(=O)O1 (stereo partly drawn) [Compound (IIIe), 2,2-Ethylene-6β,7β:15β,16β-dimethylene-3-oxo-17α-pregn-4-ene-21,17-carbolactone] | > 1000 nM | <0.6% and <0.5% | > 1000 nM | > 1000 | <0.6 | > 1000 | <0.6 |  |  |  |  | 
C[C@]12CCC(=O)C=C1C1(CC1)CC1C2CC[C@@]2(C)C1[C@@H]1CC1[C@@]21CCC(=O)O1 (stereo partly shown) [Compound (IVa)] | 45.1 nM and 64 nM | 20% and 25% |  | 3.5 | 149 | 5.1 | 116 | 28 nM and 17.7 nM |  |  |  | 
C[C@]12C=CC(=O)C=C1C1(CC1)CC1C2CC[C@@]2(C)C1[C@@H]1CC1[C@@]21CCC(=O)O1 (stereo partly drawn) [Compound (IVb), 6,6-ethylene-15β,16β-methylene-3-oxo-17α-pregna-1,4-diene 21,17-carbolactone] | 87.9 nM and 121 nM | 5% and 4% | 101 nM and 108 nM | 13.8 | 38 | 15.4 | 38 |  |  |  |  | 
C[C@@]12C(=CC(=O)C3C[C@@H]31)C1(CC1)CC1C2CC[C@@]2(C)C1[C@@H]1CC1[C@@]21CCC(=O)O1 (stereo partly drawn) [Compound (IVc), 1α,2α:15β,16β-Dimethylene-6,6-ethylene-3-oxo-17α-pregn-4-ene-21,17-carbolactone] | 117 nM and 300 nM | 7% and 5% |  | 6.7 | 78 | 8.3 | 71 | 83.6 nM and 80.9 nM |  |  |  | 
C[C@]1(O)CC[C@H]2[C@@H]3CCC4=CC(=O)CCC4=C3C=C[C@@]21C [Compound R1881, methyltrienolone, reference compound] |  |  |  |  |  |  |  |  | 100 |  |  | 
C[C@]12CCC(=O)C=C1[C@@H]1C[C@@H]1[C@H]1[C@@H]3[C@@H]4C[C@@H]4[C@@]4(CCC(=O)O4)[C@@]3(C)CC[C@@H]12 [Drospirenone, 6β,7β,15β,16β-dimethylene-3-oxo-17α-pregn-4-ene-21,17-carbolactone] |  |  |  |  | 23 |  | 29 |  |  | undergo isomerization to a form that is inactive | about 76% | sparingly soluble
